System: Acinetobacter baumannii ATCC17961
Experiment: Antimicrobial susceptibility testing: 90% growth inhibitory concentration (IC90) determination
Type: cell-based
Conditions: Acinetobacter baumannii, ATCC17961, 16 h, 90% growth inhibitory concentration against Acinetobacter baumannii ATCC17961, Iso-Sensitest broth, OD 600 nm over 16 h; read-out: ATCC 17961 IC90
Summary of the method: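 OD600 monitored each minute over 16 h at 35±2° C for bacteria (~5×10^5 CFU/mL final) in Iso-Sensitest medium with 10-point twofold compound series (e.g. 10-0.0195 μM final). Concentration giving 90% growth inhibition in log phase reported as IC90.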

| IC90 | SMILES |
| --- | --- |
| 530 nM | CNc1ccnc(-n2cc(-c3cnc(C(=O)Nc4ccc(C(=O)N5CCN(C(=O)C6CC[N+](CC(=O)O)(CC7CNC7)CC6)CC5)c(Cl)c4)n3C)c(C(F)(F)F)n2)c1 (centres unmarked) [Example 52, 2-[1-(azetidin-3-ylmethyl)-4-[4-[2-chloro-4-[[1-methyl-5-[1-[4-(methylamino)-2-pyridyl]-3-(trifluoromethyl)pyrazol-4-yl]imidazole-2-carbonyl]amino]benzoyl]piperazine-1-carbonyl]piperidin-1-ium-1-yl]acetic acid. 1:1 2,2,2-trifluoroacetate] |
| 375 nM | Cn1c(-c2cn(-c3cc4[nH]c(C(=O)N5CCO[C@]6(CCOC6)C5)cc4cn3)nc2C(F)(F)F)cnc1C(=O)Nc1ccc(C(=O)N2CCN(C(=O)[C@H]3CC[N@+](CC(=O)O)(CC4CNC4)CC3)CC2)c(Cl)c1 [Example 121, cis-2-[1-(azetidin-3-ylmethyl)-4-[4-[2-chloro-4-[[5-[1-[2-[(5R)-2,6-dioxa-9-azaspiro[4.5]decane-9-carbonyl]-1H-pyrrolo[3,2-c]pyridin-6-yl]-3-(trifluoromethyl)pyrazol-4-yl]-1-methyl-imidazole-2-carbonyl]amino]benzoyl]piperazine-1-carbonyl]piperidin-1-ium-1-yl]acetic acid. 1:1 2,2,2-trifluoroacetate] |
| 368 nM | Cn1c(-c2cn(-c3cc4[nH]cc(C(N)=O)c4cn3)nc2C(F)(F)F)cnc1C(=O)Nc1ccc(C(=O)N2CCN(C(=O)[C@H]3CC[N@+](CC(=O)O)(CC4CNC4)CC3)CC2)c(Cl)c1 [Example 157, cis-2-[1-(azetidin-3-ylmethyl)-4-[4-[4-[[5-[1-(3-carbamoyl-1H-pyrrolo[3,2-c]pyridin-6-yl)-3-(trifluoromethyl)pyrazol-4-yl]-1-methyl-imidazole-2-carbonyl]amino]-2-chloro-benzoyl]piperazine-1-carbonyl]piperidin-1-ium-1-yl]acetic acid. 1:1 2,2,2-trifluoroacetate] |
| 660 nM | Cn1c(-c2cn(-c3ccc(N)cn3)nc2C(F)(F)F)cnc1C(=O)Nc1ccc(C(=O)N2CCN(C(=O)C3CC[N+](CCCC(=O)O)(CC4CNC4)CC3)CC2)c(Cl)c1 (centres unmarked) [Example 60, 4-[4-[4-[4-[[5-[1-(5-amino-2-pyridyl)-3-(trifluoromethyl)pyrazol-4-yl]-1-methyl-imidazole-2-carbonyl]amino]-2-chloro-benzoyl]piperazine-1-carbonyl]-1-(azetidin-3-ylmethyl)piperidin-1-ium-1-yl]butyric acid. 1:1 2,2,2-trifluoroacetate] |
| 200 nM | Cn1c(-c2cn(-c3cc4[nH]ccc4cn3)nc2C(F)(F)F)cnc1C(=O)Nc1ccc(C(=O)N2CCN(C(=O)[C@H]3CC[N@+](CC(=O)O)(CC4CNC4)CC3)CC2)c(Cl)c1 [Example 14, cis-2-[1-(azetidin-3-ylmethyl)-4-[4-[2-chloro-4-[[1-methyl-5-[1-(1H-pyrrolo[3,2-c]pyridin-6-yl)-3-(trifluoromethyl)pyrazol-4-yl]imidazole-2-carbonyl]amino]benzoyl]piperazine-1-carbonyl]piperidin-1-ium-1-yl]acetic acid. 1:1 2,2,2-trifluoroacetate] |
| 370 nM | COCCNc1ccc(-n2cc(-c3cnc(C(=O)Nc4ccc(C(=O)N5CCN(C(=O)[C@H]6CC[N@+](CC(=O)O)(CC7CNC7)CC6)CC5)c(Cl)c4)n3C)c(C(F)(F)F)n2)nc1 [Example 31, cis-2-[1-(Azetidin-3-ylmethyl)-4-[4-[2-chloro-4-[[5-[1-[5-(2-methoxyethylamino)-2-pyridyl]-3-(trifluoromethyl)pyrazol-4-yl]-1-methyl-imidazole-2-carbonyl]amino]benzoyl]piperazine-1-carbonyl]piperidin-1-ium-1-yl]acetic Acid;2,2,2-trifluoroacetate] |

The next lines start with the compound.

| SMILES | IC90 |
| --- | --- |
| Cn1c(-c2cn(-c3cc4[nH]c(C(=O)N5C[C@H]6CNC[C@H]6C5)cc4cn3)nc2C(F)(F)F)cnc1C(=O)Nc1ccc(C(=O)N2CCN(C(=O)[C@H]3CC[N@+](CC(=O)O)(CC4CNC4)CC3)CC2)c(Cl)c1 [Example 112, cis-2-[4-[4-[4-[[5-[1-[2-[(3aS,6aR)-2,3,3a,4,6,6a-hexahydro-1H-pyrrolo[3,4-c]pyrrole-5-carbonyl]-1H-pyrrolo[3,2-c]pyridin-6-yl]-3-(trifluoromethyl)pyrazol-4-yl]-1-methyl-imidazole-2-carbonyl]amino]-2-chloro-benzoyl]piperazine-1-carbonyl]-1-(azetidin-3-ylmethyl)piperidin-1-ium-1-yl]acetic acid. 1:1 2,2,2-trifluoroacetate] | 356 nM |
| Cn1c(-c2cn(-c3ccc(N)cc3F)nc2C(F)(F)F)cnc1C(=O)Nc1ccc(C(=O)N2CCN(C(=O)[C@H]3CC[N@+](CC(=O)O)(CC4CNC4)CC3)CC2)c(Cl)c1 [Example 16, cis-2-[4-[4-[4-[[5-[1-(4-amino-2-fluoro-phenyl)-3-(trifluoromethyl)pyrazol-4-yl]-1-methyl-imidazole-2-carbonyl]amino]-2-chloro-benzoyl]piperazine-1-carbonyl]-1-(azetidin-3-ylmethyl)piperidin-1-ium-1-yl]acetic acid. 1:1 2,2,2-trifluoroacetate] | 210 nM |
| Cn1c(-c2cn(-c3ccc4[nH]c(CO)cc4n3)nc2C(F)(F)F)cnc1C(=O)Nc1ccc(C(=O)N2CCC(C(=O)N3CC[N+](CCCN)(CC(=O)O)CC3)CC2)c(Cl)c1 [Example 134, 2-[1-(3-aminopropyl)-4-[1-[2-chloro-4-[[1-methyl-5-[1-(2-methylol-1H-pyrrolo[3,2-b]pyridin-5-yl)-3-(trifluoromethyl)pyrazol-4-yl]imidazole-2-carbonyl]amino]benzoyl]isonipecotoyl]piperazin-1-ium-1-yl]acetic acid. 1:1 2,2,2-trifluoroacetate] | 327 nM |
| Cn1c(-c2cn(-c3ccc(N4CCNCC4)cn3)nc2C(F)(F)F)cnc1C(=O)Nc1ccc(C(=O)N2CCN(C(=O)C3CC[N+](CC(=O)O)(CC4CNC4)CC3)CC2)c(Cl)c1 (centres unmarked) [Example 3, 2-[1-(azetidin-3-ylmethyl)-4-[4-[2-chloro-4-[[1-methyl-5-[1-(5-piperazino-2-pyridyl)-3-(trifluoromethyl)pyrazol-4-yl]imidazole-2-carbonyl]amino]benzoyl]piperazine-1-carbonyl]piperidin-1-ium-1-yl]acetic acid. 1:1 2,2,2-trifluoroacetic acid. 1:1 2,2,2-trifluoroacetate] | 390 nM |
| Cn1c(-c2cn(-c3ccc4c(ccn4CC#N)n3)nc2C(F)(F)F)cnc1C(=O)Nc1ccc(C(=O)N2CCN(C(=O)[C@H]3CC[N@+](CC(=O)O)(CC4CNC4)CC3)CC2)c(Cl)c1 [Example 197, cis-2-[1-(azetidin-3-ylmethyl)-4-[4-[2-chloro-4-[[5-[1-[1-(cyanomethyl)pyrrolo[3,2-b]pyridin-5-yl]-3-(trifluoromethyl)pyrazol-4-yl]-1-methyl-imidazole-2-carbonyl]amino]benzoyl]piperazine-1-carbonyl]piperidin-1-ium-1-yl]acetic acid. 1:1 2,2,2-trifluoroacetate] | 171 nM |

Source: patent US20250179066A1, “ZWITTERIONIC ANTIBACTERIAL COMPOUNDS” (Hoffmann-La Roche Inc., priority 2022, published 2025)
